# Results from patent US6656972B2, “Control of pain with endogenous cannabinoids” (Neurosciences Research Foundation, Inc., priority 1998, dated 2003).
# Entries after “also recorded” stand apart in the source; their conditions may differ. Counter-ions that a name gives are not always drawn.
# Key:
# [1] = tested on: formalin-evoked pain behavior; test: Formalin-evoked pain behavior (paw licking, early and late phase) in mice; type: in vivo, male Swiss mice; settings: for early phase of formalin-evoked pain behavior / late phase of formalin-evoked pain behavior: drug injected in the paw (i.pl.) together with formalin; for early phase of formalin-evoked pain behavior: 0-15 min; for late phase of formalin-evoked pain behavior: 15-30 min; for formalin-evoked nociceptive response / pain behavior (whole testing period): i.pl., 50 μg; for reversal of PEA-induced analgesia: prior administration of antagonist, PEA 50 μg i.pl.; for blockade of the antinociceptive effects of anandamide plus PEA (0.1 μg each): antagonist 0.1 mg per kg i.v., prior administration; for reversal of the antinociceptive effects of anandamide, WIN-55212-2 and HU-210: prior systemic administration of antagonist
# Protocol: For instance, injection of dilute formalin in the hind-paws of freely moving rodents evokes a pain behavior consisting of two temporally distinct phases of licking and flexing of the injected limb. An early phase involving activation of primary sensory fibers begins immediately after formalin administration, reaches a peak within 5 min, and rapidly declines. Following an interval of 10-15 min, a second phase of sustained pain behavior appears, in which sensory fiber activity is accompanied by local inflammation and central sensitization.
# Saline (10 μl) containing 5% formalin and 10% DMSO was injected subcutaneously in the hind-paws of male Swiss mice (20-25 g, Nossan, Italy). The duration of paw licking was monitored by an observer blind to the experimental treatment for periods of 0-15 min (early phase) and 15-30 min (late phase) after formalin administration. For the experiment in FIG. 4, pain behavior was monitored for 5 min periods during a 30 min period following formalin injection.
# [2] = tested on: inflammatory edemas in the hind paws; test: Formalin-induced inflammatory paw edema (plethysmometer); type: in vivo, Swiss mice; settings: after injection of formalin plus PEA (50 μg per paw); six mice; formalin alone 0.37±0.006, control 0.18±0.003
# [3] = tested on: nerve conduction, blinking reflex of the cornea; test: Rabbit corneal reflex test (local anaesthetic activity); type: in vivo, male New Zealand rabbits; settings: aqueous 2% solution with 30% DMSO into the conjunctival sac
# Protocol: Local anaesthetic activity was evaluated in male New Zealand rabbits (2. 4-2.8 kg, Morini, Italy) by measuring the number of stimuli to the cornea, delivered with a Frey's horse-hair, necessary to produce the blinking reflex. Aqueous 2% solutions of PEA or lidocaine (a standard local anaesthetic) containing 30% DMSO were applied into the conjuctival sac.
# [4] = tested on: behavioral response to acute thermal stimuli; test: Hot-plate test (time delays to escape jumping, 55.5 C) after intracerebroventricular administration; type: in vivo, mice; settings: for hot-plate latencies: 10 μg (10 μg each for AEA/PEA), n = 6
# [5] = rats, 10 min after i.pl. injection
# [6] = 5 min after i.c.v. administration
# [7] = 10 min after i.c.v. administration
# [8] = 15 min after i.c.v. administration
# [9] = 20 min after i.c.v. administration
# [10] = 30 min after i.c.v. administration
# [11] = 40 min after i.c.v. administration
# [12] = 60 min after i.c.v. administration
# [13] = antagonist alone, systemic administration, 0.1 mg per kg i.v.
compound,measurement,setting,value
Cc1c(C(=O)c2cccc3ccccc23)c2cccc3c2n1[C@H](CN1CCOCC1)CO3 [WIN-55212-2],early phase of formalin-evoked pain behavior,[1],blocked
same,late phase of formalin-evoked pain behavior,[1],blocked
"CCCCCCCCCCCCCCCC(=O)NCCO [PEA, palmitylethanolamide]",paw volume,[2],0.35 ± 0.006 mL
same,nerve conduction in the rabbit corneal reflex test (local anesthetic activity),[3],did not affect
same,early phase of formalin-evoked pain behavior,[1],inhibited
same,late phase of formalin-evoked pain behavior,[1],inhibited
same,"antinociceptive potency, local (i.pl.) compared with systemic (i.v. or i.p.) administration",[1]; i.pl. vs i.v. or i.p.,more potent when administered locally
same,formalin-evoked nociceptive response / pain behavior (whole testing period),[1],inhibits
same,hot-plate latencies,[4]; [6],22 ± 3 s
same,hot-plate latencies,[4]; [7],23 ± 3 s
same,hot-plate latencies,[4]; [8],21 ± 2 s
same,hot-plate latencies,[4]; [9],25 ± 4 s
same,hot-plate latencies,[4]; [10],26 ± 5 s
same,hot-plate latencies,[4]; [11],22 ± 4 s
same,hot-plate latencies,[4]; [12],24 ± 2 s
same,enhancement of the inhibitory activity of anandamide in the hot-plate test,[4]; both injected in the cerebral ventricles,did not enhance
same,"behavioral responses to acute thermal stimuli, hot-plate test",[4]; injection in the cerebral ventricles,did not affect
CCCCC/C=C\C/C=C\C/C=C\C/C=C\CCCC(=O)NCCO [[^3H]anandamide],radioactivity in cerebellum,[5],165±67 dpm per g
same,radioactivity in forebrain,[5],79±19 dpm per g
same,radioactivity in spinal cord,[5],90±48 dpm per g
same,radioactivity in injected paw,[5]; mean±s.e.m.,6648±820 dpm per g
same,recovered [3H]anandamide remaining associated with the injected paw,[5]; three experiments,94%
C=CCN1CC[C@]23c4c5ccc(O)c4O[C@H]2C(=O)CC[C@@]3(O)[C@H]1C5 [naloxone],reversal of PEA-induced analgesia,[1],ineffective
"Cc1c(C(=O)NN2CCCCC2)nn(-c2ccc(Cl)cc2Cl)c1-c1ccc(Cl)cc1 [SR141716A, [N-(piperidin-1-yl)-5-(4-chlorophenyl)-1-(2,4-dichlorophenyl)-4-methyl-1H-pyrazole-3-carboxamide. HCl]]",blockade of the antinociceptive effects of anandamide plus PEA (0.1 μg each),[1],prevent
same,reversal of PEA-induced analgesia,[1],ineffective
same,"reversal of the antinociceptive effects of anandamide, WIN-55212-2 and HU-210",[1]; 0.1 mg per kg i.v.,reversed
"N-[(1S)-endo-1,3,3-trimethyl bicyclo [2.2.1]heptan-2-yl]-5-(4-chloro-3-methylphenyl)-1-(4-methylbenzyl)-pyrazole-3-carboxamide [SR144528]",blockade of the antinociceptive effects of anandamide plus PEA (0.1 μg each),[1],prevent
same,intrinsic effect of antagonist on early phase of formalin-evoked pain behavior,[1]; [13],selective enhancement; also recorded: selectively enhanced
same,intrinsic effect of antagonist on late phase of formalin-evoked pain behavior,[1]; [13],not
same,reversal of PEA-induced analgesia,[1],completely reversed
same,"reversal of the antinociceptive effects of anandamide, WIN-55212-2 and HU-210",[1]; 0.1 mg per kg i.v.,not
CCCCC/C=C\C/C=C\C/C=C\C/C=C\CCCC(=O)N[C@H](C)CO [methanandamide],formalin-evoked nociceptive response / pain behavior (whole testing period),[1],inhibited pain behavior throughout the testing period
"CCCCC/C=C\C/C=C\C/C=C\C/C=C\CCCC(=O)NCCO [anandamide, arachidonylethanolamide]",early phase of formalin-evoked pain behavior,[1],completely blocked
same,late phase of formalin-evoked pain behavior,[1],lack of effect; also recorded: no effect
same,"potency in preventing formalin-evoked pain behavior, i.pl. relative to i.v.",[1]; i.pl. vs i.v.,100 times
same,formalin-evoked nociceptive response / pain behavior (whole testing period),[1],inhibits
same,effect on formalin-evoked pain behavior,[1]; intraperitoneal (i.p.),no effect
same,"half-maximal inhibitory dose (ID50), formalin-evoked pain behavior",[1]; intraplantar (i.pl.),0.1 mg per kg
same,"half-maximal inhibitory dose (ID50), formalin-evoked pain behavior",[1]; intravenous (i.v.),10 mg per kg
same,hot-plate latencies,[4]; [6],24 ± 4 s
same,hot-plate latencies,[4]; [7],23 ± 3 s
same,hot-plate latencies,[4]; [8],29 ± 3 s
same,hot-plate latencies,[4]; [9],35 ± 2 s
same,hot-plate latencies,[4]; [10],40 ± 3 s
same,hot-plate latencies,[4]; [11],30 ± 3 s
same,hot-plate latencies,[4]; [12],28 ± 3 s
CCCCCCC(C)(C)c1cc(O)c2c(c1)OC(C)(C)[C@@H]1CC=C(CO)C[C@@H]21 [HU-210],early phase of formalin-evoked pain behavior,[1],blocked
same,late phase of formalin-evoked pain behavior,[1],blocked
